The values that follow come from paper PMC10824666 (Nature Cancer, 2023).

Molecules are shown by their SMILES. Like-named read-outs stand apart in the source and are kept apart here.

Common to all, as to assay: biochemical
Common to all, as to parameters: Eurofins DiscoverX kinase panel, competitive binding assay at 1 uM, percent of DMSO control
Details in all cases: competitive binding, percent of DMSO control

The target of assay [1] is T1, JNK3 (Homo sapiens, UniProt P53779).
T1 construct: gene MAPK10
T1 sequence (P53779 whole entry): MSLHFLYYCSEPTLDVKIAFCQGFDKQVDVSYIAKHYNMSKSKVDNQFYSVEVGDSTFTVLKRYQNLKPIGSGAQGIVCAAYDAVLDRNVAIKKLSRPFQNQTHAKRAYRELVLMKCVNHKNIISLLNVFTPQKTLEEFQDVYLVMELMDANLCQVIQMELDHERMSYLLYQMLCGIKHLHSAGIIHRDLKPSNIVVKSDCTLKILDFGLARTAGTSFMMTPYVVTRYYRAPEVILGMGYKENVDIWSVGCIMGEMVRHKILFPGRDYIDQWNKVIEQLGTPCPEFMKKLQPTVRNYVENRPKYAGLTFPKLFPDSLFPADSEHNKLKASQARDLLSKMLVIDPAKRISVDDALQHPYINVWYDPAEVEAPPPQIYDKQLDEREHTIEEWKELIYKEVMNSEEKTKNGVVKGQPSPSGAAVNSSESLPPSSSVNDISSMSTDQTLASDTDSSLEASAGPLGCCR
In short, it runs like this:
(§1)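 Single-point profiling at 1 µM compound in a competition-binding format against 96 kinases, read out as POC relative to control; n = 1.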

Assay [2] addresses MAPKAPK2 (Homo sapiens, UniProt P49137). The essentials:
as §1

In assay [3] the target is T2, PRKG1 (Homo sapiens, UniProt Q13976).
T2 sequence (Q13976 1-671): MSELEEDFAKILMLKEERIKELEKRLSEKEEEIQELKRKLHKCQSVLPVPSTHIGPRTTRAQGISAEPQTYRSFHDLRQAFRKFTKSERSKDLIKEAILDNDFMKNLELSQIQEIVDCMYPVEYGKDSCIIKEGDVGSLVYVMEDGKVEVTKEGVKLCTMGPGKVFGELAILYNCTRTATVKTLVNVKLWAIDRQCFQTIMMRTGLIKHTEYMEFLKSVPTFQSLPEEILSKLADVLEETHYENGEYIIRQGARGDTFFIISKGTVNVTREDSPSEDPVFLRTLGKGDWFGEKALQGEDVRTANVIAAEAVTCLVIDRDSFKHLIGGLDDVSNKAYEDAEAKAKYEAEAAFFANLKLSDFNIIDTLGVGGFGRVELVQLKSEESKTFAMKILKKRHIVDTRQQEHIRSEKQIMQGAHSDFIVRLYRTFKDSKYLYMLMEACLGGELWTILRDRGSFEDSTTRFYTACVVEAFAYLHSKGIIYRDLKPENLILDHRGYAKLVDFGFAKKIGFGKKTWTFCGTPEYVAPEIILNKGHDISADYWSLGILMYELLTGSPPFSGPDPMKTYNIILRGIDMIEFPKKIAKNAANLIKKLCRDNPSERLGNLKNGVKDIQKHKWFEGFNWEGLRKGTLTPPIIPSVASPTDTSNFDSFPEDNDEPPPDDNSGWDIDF
In short, it runs like this: as §1

For assay [4], the target named is DDR1 (Homo sapiens, UniProt Q08345). The essentials: as §1
Assay [5] addresses T3, MNK1b (Homo sapiens, UniProt Q9BUB5).
T3 construct: gene MKNK1; isoform b
In short, it runs like this:
as §1

The target in assay [6] is PRKAA1 (Homo sapiens, UniProt Q13131). The essentials: as §1
Chain of PRKAA1 (Q13131 whole entry): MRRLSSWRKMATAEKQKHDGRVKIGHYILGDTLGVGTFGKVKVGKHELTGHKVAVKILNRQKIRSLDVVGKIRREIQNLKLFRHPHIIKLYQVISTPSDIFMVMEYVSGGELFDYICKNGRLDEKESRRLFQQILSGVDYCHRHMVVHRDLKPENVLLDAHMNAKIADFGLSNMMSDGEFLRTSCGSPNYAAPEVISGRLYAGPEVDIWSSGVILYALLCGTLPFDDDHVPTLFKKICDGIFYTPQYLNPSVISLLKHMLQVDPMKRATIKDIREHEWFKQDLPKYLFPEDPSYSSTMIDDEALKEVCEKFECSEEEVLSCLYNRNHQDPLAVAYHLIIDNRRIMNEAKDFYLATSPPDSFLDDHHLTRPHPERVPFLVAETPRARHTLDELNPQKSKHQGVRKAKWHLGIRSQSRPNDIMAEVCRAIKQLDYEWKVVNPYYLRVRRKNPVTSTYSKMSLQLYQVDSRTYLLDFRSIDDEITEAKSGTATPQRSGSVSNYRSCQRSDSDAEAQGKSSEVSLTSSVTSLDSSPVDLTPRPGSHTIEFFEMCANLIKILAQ
Chain of PRKAA1 (P54619 whole entry partner): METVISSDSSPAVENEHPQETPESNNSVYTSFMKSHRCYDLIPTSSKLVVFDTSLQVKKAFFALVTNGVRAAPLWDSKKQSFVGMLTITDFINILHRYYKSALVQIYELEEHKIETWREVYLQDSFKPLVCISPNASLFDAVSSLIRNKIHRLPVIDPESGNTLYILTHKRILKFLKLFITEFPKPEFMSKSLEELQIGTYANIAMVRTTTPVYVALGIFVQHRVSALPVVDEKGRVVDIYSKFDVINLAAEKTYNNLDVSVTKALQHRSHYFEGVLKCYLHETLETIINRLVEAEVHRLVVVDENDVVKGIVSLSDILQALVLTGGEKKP
Chain of PRKAA1 (Q9Y478 whole entry partner): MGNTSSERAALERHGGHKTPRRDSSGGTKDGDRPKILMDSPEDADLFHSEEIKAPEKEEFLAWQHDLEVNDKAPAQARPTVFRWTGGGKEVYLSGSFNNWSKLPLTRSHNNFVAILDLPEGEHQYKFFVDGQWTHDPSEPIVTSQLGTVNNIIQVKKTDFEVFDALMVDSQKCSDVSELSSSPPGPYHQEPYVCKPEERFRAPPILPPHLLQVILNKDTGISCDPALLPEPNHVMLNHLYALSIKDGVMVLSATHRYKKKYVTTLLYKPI
The target in assay [7] is BTK (Homo sapiens, UniProt Q06187). The essentials: as §1
Chain of BTK (Q06187 whole entry): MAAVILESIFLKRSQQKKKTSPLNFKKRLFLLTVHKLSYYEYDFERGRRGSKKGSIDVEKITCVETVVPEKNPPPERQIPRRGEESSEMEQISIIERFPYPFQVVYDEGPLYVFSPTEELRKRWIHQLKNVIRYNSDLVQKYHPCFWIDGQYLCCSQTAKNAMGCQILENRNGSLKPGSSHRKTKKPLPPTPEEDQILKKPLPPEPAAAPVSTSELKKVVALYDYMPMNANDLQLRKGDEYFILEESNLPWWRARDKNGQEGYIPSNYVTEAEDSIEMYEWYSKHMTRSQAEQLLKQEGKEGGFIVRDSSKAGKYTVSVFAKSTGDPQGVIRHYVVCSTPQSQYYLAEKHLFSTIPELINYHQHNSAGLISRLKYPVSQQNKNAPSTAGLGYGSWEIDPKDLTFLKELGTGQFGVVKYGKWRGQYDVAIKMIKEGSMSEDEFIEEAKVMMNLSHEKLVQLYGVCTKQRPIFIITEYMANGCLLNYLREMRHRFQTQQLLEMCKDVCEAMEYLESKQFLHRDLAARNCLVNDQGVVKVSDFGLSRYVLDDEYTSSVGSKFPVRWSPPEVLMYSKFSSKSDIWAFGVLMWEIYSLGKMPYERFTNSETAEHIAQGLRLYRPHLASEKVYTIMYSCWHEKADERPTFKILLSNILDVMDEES
Assay [8] deals with CDK2 (Homo sapiens, UniProt P24941). The essentials: as §1
Assay [9] has as its target c-KIT (Homo sapiens, UniProt P10721). The essentials: as §1
Assay [10] has as its target CAMK2D (Homo sapiens, UniProt Q13557). The essentials:
as §1

The mark [11] stands for this setting: read-out: Kinome Profiling performed by Eurofins DiscoverX / AM-0277, 1.0 µM / POC.
Where [12] appears, read: read-out: Kinome Profiling performed by Eurofins DiscoverX / AM-1882, 1.0 µM / POC.
The mark [13] stands for this setting: read-out: Kinome Profiling performed by Eurofins DiscoverX / AM-5308, 1.0 µM / POC.

Chain of c-KIT (P10721 whole entry): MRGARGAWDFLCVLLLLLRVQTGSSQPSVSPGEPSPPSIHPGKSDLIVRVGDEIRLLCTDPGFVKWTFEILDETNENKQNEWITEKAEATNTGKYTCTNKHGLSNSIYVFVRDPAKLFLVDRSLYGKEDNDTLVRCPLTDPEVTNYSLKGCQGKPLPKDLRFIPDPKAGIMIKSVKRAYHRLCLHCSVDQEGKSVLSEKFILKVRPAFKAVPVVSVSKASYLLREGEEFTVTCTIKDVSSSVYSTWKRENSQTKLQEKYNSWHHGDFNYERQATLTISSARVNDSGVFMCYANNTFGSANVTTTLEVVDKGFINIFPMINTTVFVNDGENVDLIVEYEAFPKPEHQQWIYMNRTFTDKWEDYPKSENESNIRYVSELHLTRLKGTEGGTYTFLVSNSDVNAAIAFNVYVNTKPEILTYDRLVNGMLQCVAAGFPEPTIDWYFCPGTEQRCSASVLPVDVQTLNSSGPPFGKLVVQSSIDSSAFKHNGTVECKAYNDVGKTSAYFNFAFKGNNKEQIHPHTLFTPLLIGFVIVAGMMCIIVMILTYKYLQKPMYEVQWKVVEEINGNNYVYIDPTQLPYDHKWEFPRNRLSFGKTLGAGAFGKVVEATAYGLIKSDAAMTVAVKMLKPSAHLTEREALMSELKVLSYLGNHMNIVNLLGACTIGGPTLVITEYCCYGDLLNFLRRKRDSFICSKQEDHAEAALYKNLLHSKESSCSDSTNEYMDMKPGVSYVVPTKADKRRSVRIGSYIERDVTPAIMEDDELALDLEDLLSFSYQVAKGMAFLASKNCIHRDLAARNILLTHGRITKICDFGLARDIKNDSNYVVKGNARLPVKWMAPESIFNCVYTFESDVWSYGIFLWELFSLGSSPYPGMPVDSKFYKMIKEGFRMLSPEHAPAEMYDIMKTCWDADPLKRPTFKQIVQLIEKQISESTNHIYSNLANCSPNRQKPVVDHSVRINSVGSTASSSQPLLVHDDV
Chain of CAMK2D (Q13557 whole entry): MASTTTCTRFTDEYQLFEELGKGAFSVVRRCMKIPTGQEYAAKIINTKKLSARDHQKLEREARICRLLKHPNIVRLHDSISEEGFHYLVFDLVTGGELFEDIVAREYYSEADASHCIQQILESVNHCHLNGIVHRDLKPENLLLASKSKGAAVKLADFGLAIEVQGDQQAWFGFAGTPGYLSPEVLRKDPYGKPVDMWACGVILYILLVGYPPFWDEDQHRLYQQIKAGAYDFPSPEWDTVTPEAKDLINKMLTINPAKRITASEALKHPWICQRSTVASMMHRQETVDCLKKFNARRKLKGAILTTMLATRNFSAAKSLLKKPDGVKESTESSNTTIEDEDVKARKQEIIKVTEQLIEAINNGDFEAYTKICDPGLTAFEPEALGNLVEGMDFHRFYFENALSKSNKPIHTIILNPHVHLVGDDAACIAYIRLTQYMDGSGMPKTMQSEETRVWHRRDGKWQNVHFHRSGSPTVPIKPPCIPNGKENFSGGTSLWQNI
T3 sequence (Q9BUB5 whole entry, canonical isoform): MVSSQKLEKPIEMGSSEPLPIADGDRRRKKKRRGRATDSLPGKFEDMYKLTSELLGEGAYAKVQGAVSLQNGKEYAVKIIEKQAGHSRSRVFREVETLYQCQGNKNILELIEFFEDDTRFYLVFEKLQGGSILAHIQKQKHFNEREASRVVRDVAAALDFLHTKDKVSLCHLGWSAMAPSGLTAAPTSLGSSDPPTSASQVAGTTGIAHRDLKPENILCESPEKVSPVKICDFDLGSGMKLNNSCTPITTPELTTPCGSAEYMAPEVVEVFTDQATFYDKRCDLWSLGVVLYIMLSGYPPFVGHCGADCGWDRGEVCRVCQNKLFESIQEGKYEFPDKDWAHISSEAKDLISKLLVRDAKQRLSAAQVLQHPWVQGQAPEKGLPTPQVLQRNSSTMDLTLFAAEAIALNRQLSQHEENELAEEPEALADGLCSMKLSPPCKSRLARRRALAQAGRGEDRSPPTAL
Chain of MAPKAPK2 (P49137 whole entry): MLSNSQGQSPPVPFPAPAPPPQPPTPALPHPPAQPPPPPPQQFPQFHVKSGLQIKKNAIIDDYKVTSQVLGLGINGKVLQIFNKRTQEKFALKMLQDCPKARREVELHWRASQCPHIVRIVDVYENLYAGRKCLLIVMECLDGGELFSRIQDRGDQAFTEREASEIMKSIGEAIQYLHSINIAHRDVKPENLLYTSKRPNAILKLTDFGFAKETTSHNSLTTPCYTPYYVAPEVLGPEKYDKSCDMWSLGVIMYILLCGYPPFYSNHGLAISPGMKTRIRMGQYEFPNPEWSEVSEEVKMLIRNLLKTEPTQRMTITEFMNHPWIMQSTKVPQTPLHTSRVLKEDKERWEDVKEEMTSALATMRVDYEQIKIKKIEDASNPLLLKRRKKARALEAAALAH

For the molecule `CC(C)(CO)Nc1ccc(C(=O)Nc2cccc(S(=O)(=O)C3CCCC3)c2)c(N2CCC3(CC2)CC3)n1` [AM-0277], the remaining activity at 1 µM was found to be 100% in assay [1] (setting [11]); 79% in [2] (setting [11]); 87% in [3] (setting [11]); 95% in [4] (setting [11]); 100% in assay [5] (setting [11]); 96% in [6] (setting [11]). Further, the remaining activity at 1 µM was 100% in assay [7] (setting [11]), 97% in [8] (setting [11]), 92% in assay [9] (setting [11]) and 91% in [10] (setting [11]).

For `CC(C)(C)NS(=O)(=O)c1cccc(NC(=O)c2ccc(S(=O)(=O)NC(C)(C)C)cc2N2CCC3(CC2)CC3)c1` [AM-1882], the remaining activity at 1 µM came to 82% in assay [1] (setting [12]); 95.5% in assay [2] (setting [12]); 89% in [3] (setting [12]); 97% in [4] (setting [12]); 100% in [5] (setting [12]); 100% in [6] (setting [12]). The remaining activity at 1 µM in assay [7] (setting [12]), in [8] (setting [12]), in assay [9] (setting [12]) and in [10] (setting [12]) was 100% each time.

For `C[C@@H]1CN(c2cccc(NC(=O)c3ccc(NS(=O)(=O)CCO)cc3N3CCC4(CC3)CC4)n2)CCO1` [AM-5308], the remaining activity at 1 µM in assay [1] (setting [13]) was determined as 88.5%; in [2] (setting [13]) it was 95%; in assay [3] (setting [13]) it was 100%; in [4] (setting [13]), 100%; in assay [5] (setting [13]), 96.5%; in assay [6] (setting [13]) it was 97%. Also, the remaining activity at 1 µM amounted to 98.5% in assay [7] (setting [13]), 94.5% in assay [8] (setting [13]), 100% in [9] (setting [13]) and 58.5% in assay [10] (setting [13]).
